Source: patent US20250154154A1 (Relay Binney Street, 2nd Floor, priority 2020, published 2025)

Experiments:
[1] = system: phospho-S6RP (Ser 235/236) in RBE cells; test: Cellular Proliferation Protocol (cellular phospho-S6RP HTRF), RBE cells; type: cell-based; settings: 6 hours treatment, RBE or SNU-1079 cells, cell line not given
Method: Cellular Proliferation Protocol
Cellular phospho-S6RP (Ser 235/236) was measured using a Fluorescence Resonance Energy Transfer (FRET) sandwich assay format (Cisbio HTRF Cat. No. 64RP6PEG). This format uses 2 different, labelled antibodies (Eu^3+-Cryptate donor and d2 acceptor) that positively modulate a specific signal in proportion to phospho-S6RP (Ser 235/236) directly in cells. RBE or SNU-1079 cells were cultivated in T-75 flasks at 37° C., 5% CO2, 95% relative humidity in RPMI 1640 medium with 10% FBS and 1% Penicillin/Streptomycin and detached with trypsin/EDTA at 80-90% confluency. Cells were then seeded in 40 μL volume per well in 384-well flat-bottom polystyrene microplates (Corning Cat. No. 3570) at a seeding density of 2000 cells/well for RBE and 3000 cells/well for SNU-1079 followed by 24 hour incubation at 37° C., 5% CO2, 95% relative humidity. On the next day, compounds were diluted to […] the indicated concentrations and 40 nL of these treatment compounds, along with DMSO vehicle control, were added to the cells (final concentration of compounds is then the indicated concentrations). Treatment was carried out for 6 hours at 37° C., 5% CO2, 95% relative humidity after which the plates were cooled to room temperature before aspirating the medium. Cells were then lysed on a shaker for 45 minutes at room temperature with 20 μL of 1× supplemented lysis buffer per well. After lysis, 5 μL of pre-mixed antibodies was added per well. Plates were covered with black sealing film and incubated overnight at room temperature on a shaker before being read on a PerkinElmer EnVision microplate reader. Percent activation was calculated relative to DMSO control and IC50 values were obtained from dose-response data fitted to a 4-parameter curve.

[2] = biological target: SRC (Homo sapiens, UniProt P12931); test: SRC Biochemical Assay Protocol (microfluidic mobility shift assay, FLPeptide4 substrate)
Method in brief: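 Recombinant SRC (0.26 nM) preincubated 30 min at RT with compound (0.0017–100 μM) and 1.5 μM FLPeptide4, then 50 μM ATP added; 90 min reaction in HEPES pH 7.4, 10 mM MgCl2, 1% DMSO, EDTA-quenched. Phosphopeptide quantified by microfluidic mobility shift; IC50 from 4-parameter logistic fit.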

[3] = system: RBE cells; test: Cell Viability Protocol (CellTiterGlo), RBE cells; type: cell-based; settings: RBE or SNU-1079 cells, 72 or 120 hour, cell line and time not given
Method: RBE or SNU-1079 cells were cultured in T-75 or T-175 flasks at 37° C., 5% CO2, 95% relative humidity in RPMI 1640 medium with 10% FBS and 1% Penicillin/Streptomycin (media) and detached with 0.25% trypsin/EDTA at 80-90% confluency. Cells were then seeded in 40 μL media per well in 384-well flat-bottom polystyrene microplates (Corning Cat. No. 3570) at a seeding density of 1200 cells/well and incubated for 24 hours at 37° C. with 5% CO2, 95% relative humidity. On the next day, test compounds were prepared in 10 mM DMSO stock solution and diluted to the indicated concentrations in a 384-well compound source plate. DMSO was employed as a vehicle control. Compounds (40 nL) were transferred to 384-well cell culture plate(s) using the liquid handler Echo550. Plates were incubated at 37° C. with 5% CO2 for 72 hour or 120 hour (as indicated). CellTiterGlo reagent was warmed to 37° C. and added into each well (40 μL per well). Plates were incubated at room temperature for 30 min followed by reading on the EnSpire or EnVision plate reader. Relative viability (% remaining activity) was calculated relative to DMSO control and IC50 values were obtained from dose-response data fitted to a 4-parameter curve.

Sequence of SRC (P12931 whole entry, species assumed): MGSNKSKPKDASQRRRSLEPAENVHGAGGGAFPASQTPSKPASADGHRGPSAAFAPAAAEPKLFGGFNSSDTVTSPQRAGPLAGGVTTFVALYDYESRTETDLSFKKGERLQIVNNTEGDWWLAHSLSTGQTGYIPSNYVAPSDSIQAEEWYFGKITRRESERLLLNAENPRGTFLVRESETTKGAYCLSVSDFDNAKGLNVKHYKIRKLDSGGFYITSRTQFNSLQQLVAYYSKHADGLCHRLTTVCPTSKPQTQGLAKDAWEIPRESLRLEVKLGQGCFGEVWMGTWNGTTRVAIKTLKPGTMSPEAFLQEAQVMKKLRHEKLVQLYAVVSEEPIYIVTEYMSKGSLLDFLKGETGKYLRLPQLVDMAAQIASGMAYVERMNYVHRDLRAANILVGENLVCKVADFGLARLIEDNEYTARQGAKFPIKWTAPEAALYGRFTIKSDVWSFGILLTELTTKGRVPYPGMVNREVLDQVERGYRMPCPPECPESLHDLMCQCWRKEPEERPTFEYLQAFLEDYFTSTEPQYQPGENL

Compound	IC50 [2]	IC50 ([1]; 6 h)	IC50 [3]	IC50 [1]
C=CC(=O)N1CCC(C#Cc2c(-c3ccc(Oc4ccccc4)cc3)c3c(N)ncnc3n2C2CCOCC2)CC1 [Example I-41, 1-(4-((4-amino-5-(4-phenoxyphenyl)-7-(tetrahydro-2H-pyran-4-yl)-7H-pyrrolo[2,3-d]pyrimidin-6-yl)ethynyl)piperidin-1-yl)prop-2-en-1-one]	10 to 1000 nM		10 to 1000 nM	
C=CC(=O)N1CCC(C#Cc2c(-c3ccc(Oc4ccccc4)cc3)c3c(N)ncnc3n2C(C)c2ncon2)CC1 (stereo not drawn) [Example I-59]	10 to 1000 nM		10 to 1000 nM	
CN(C)C/C=C/C(=O)N1CC(C#Cc2c(-c3ccc(Oc4ccccc4)cc3)c3c(N)ncnc3n2C2CCOC2)C1 (stereo not drawn) [Example I-67]	10 to 1000 nM		10 to 1000 nM	
CC(C)n1c(C#CC2CN(C(=O)CCl)C2)c(-c2ccc(Oc3ccccc3)cc2)c2c(N)ncnc21 [Example I-6]	≤ 10 nM		10 to 1000 nM	
C=CC(=O)N1CCC(C#Cc2c(-c3ccc(Oc4ccccc4)cc3)c3c(N)ncnc3n2C(C)C)CC1 [Example I-8, 1-(4-((4-amino-7-isopropyl-5-(4-phenoxyphenyl)-7H-pyrrolo[2,3-d]pyrimidin-6-yl)ethynyl)piperidin-1-yl)prop-2-en-1-one]	10 to 1000 nM		10 to 1000 nM	
C=CC(=O)N1CCC(O)(C#Cc2c(-c3ccc(Oc4ccccc4F)cc3)c3c(N)ncnc3n2C)CC1 [Example I-66]	10 to 1000 nM		10 to 1000 nM	
C=CC(=O)N1CCC(O)(C#Cc2c(-c3ccc(Oc4ccccc4)cc3)c3c(N)ncnc3n2C)CC1 [Example I-63]	10 to 1000 nM		10 to 1000 nM	
C=CC(=O)N1CCC(C#Cc2c(-c3ccc(Oc4ccccc4)cc3)c3c(N)ncnc3n2C(C)C)(OC)CC1 [Example I-35]	10 to 1000 nM		10 to 1000 nM	
CN(C)C/C=C/C(=O)N1CCC(O)(C#Cc2c(-c3ccc(Oc4ccccc4)cc3)c3c(N)ncnc3n2C2CCOC2)CC1 (stereo not drawn) [Example I-68]	10 to 1000 nM		10 to 1000 nM	
C=CC(=O)N1CCC(C#Cc2c(-c3ccc(Oc4ccccc4)cc3)c3c(N)ncnc3n2C2CCCNC2)CC1 (stereo not drawn) [Example I-60]	10 to 1000 nM		10 to 1000 nM	
Cc1cccc(Oc2ccc(-c3c(C#C[C@@H]4[C@H]5CN(C(=O)/C=C/CN(C)C)C[C@@H]45)n(C)c4ncnc(N)c34)cc2)n1 [II-46]	10 to 1000 nM		10 to 1000 nM	
CC(C)n1c(C#CC2CCC(C(=O)O)CC2)c(-c2ccc(Oc3ccccc3)cc2)c2c(N)ncnc21 (stereo not drawn) [II-138, 4-((4-amino-7-isopropyl-5-(4-phenoxyphenyl)-7H-pyrrolo[2,3-d]pyrimidin-6-yl)ethynyl) cyclohexanecarboxylic acid]	≤ 10 nM		10 to 1000 nM	
C=CC(=O)N1CCC(C#Cc2cn3ncnc(N)c3c2-c2ccc(Oc3ccccc3)cc2)CC1 [Example I-64]	10 to 1000 nM		1000 to 10000 nM	
COc1cc(-c2c(C#C[C@@H]3[C@H]4CN(C(=O)/C=C/CN5CCC(F)C5)C[C@@H]34)n(C)c3ncnc(N)c23)ccc1Oc1ccccn1 (stereo partly drawn) [II-47]	10 to 1000 nM		10 to 1000 nM	
C=CC(=O)N1CC[C@H](N2CC(C#Cc3c(-c4ccc(Cl)c(OC)c4)c4c(N)ncnc4n3C)C2)[C@H](O)C1	≤ 10 nM			10 to 1000 nM
C=CC(=O)N1CCC(C#Cc2c(-c3cnc(Oc4ccccc4)cn3)c3c(N)ncnc3n2C(C)C)CC1 [Example I-65]	10 to 1000 nM		10 to 1000 nM	
C=CC(=O)N1CCC(C#Cc2c(-c3ccc(Oc4ccccc4)cn3)c3c(N)ncnc3n2C(C)C)CC1 [Example I-55]	10 to 1000 nM		10 to 1000 nM	
CC(C)n1c(C#CC2CCNCC2)c(-c2ccc(Oc3ccccc3)cc2)c2c(N)ncnc21 [II-137, 7-isopropyl-5-(4-phenoxyphenyl)-6-(piperidin-4-ylethynyl)-7H-pyrrolo[2,3-d]pyrimidin-4-amine]	≤ 10 nM		1000 to 10000 nM	
CN(C)C/C=C/C(=O)N1C[C@@H]2[C@@H](C#Cc3c(-c4ccc(Oc5cccc(F)c5)cc4)c4c(N)ncnc4n3C)[C@@H]2C1 [II-43]	10 to 1000 nM		≤ 10 nM	

The next lines start with results.

IC50 [2]	Compound	IC50 ([1]; 6 h)	IC50 [3]	IC50 [1]
≤ 10 nM	C=CC(=O)N1CCC(N2CC(C#Cc3c(-c4ccc(Oc5ccccc5)cc4)c4c(N)ncnc4n3C)C2)C[C@@H]1COC (stereo partly drawn) [II-186, 1-((2R)-4-(3-((4-amino-7-methyl-5-(4-phenoxyphenyl)-7H-pyrrolo[2,3-d]pyrimidin-6-yl)ethynyl)azetidin-1-yl)-2-(methoxymethyl)piperidin-1-yl)prop-2-en-1-one]	≤ 10 nM	≤ 10 nM	
10 to 1000 nM	C=CC(=O)N1CCC(N2CC(C#Cc3c(-c4ccc(Cl)c(OC)c4)c4c(N)ncnc4n3C)C2)C[C@H]1CO (stereo partly drawn) [II-256]	10 to 1000 nM	10 to 1000 nM	
10 to 1000 nM	CC(C)n1c(C#CC2CCN(Cc3ccccc3)CC2)c(-c2ccc(Oc3ccccc3)cc2)c2c(N)ncnc21 [II-145, 6-((1-benzylpiperidin-4-yl)ethynyl)-7-isopropyl-5-(4-phenoxyphenyl)-7H-pyrrolo[2,3-d]pyrimidin-4-amine]		1000 to 10000 nM	
10 to 1000 nM	C=CC(=O)NCC#Cc1c(-c2ccc(Oc3ccccc3)cc2)c2c(N)ncnc2n1C [II-162, N-(3-(4-amino-7-methyl-5-(4-phenoxyphenyl)-7H-pyrrolo[2,3-d]pyrimidin-6-yl)prop-2-yn-1-yl)acrylamide]		10 to 1000 nM	
10 to 1000 nM	COc1cc(Oc2cccc(C)n2)ccc1-c1c(C#C[C@@H]2[C@H]3CN(C(=O)/C=C/CN4CCC(F)C4)C[C@@H]23)n(C)c2ncnc(N)c12 (stereo partly drawn) [II-236, (E)-1-((1R,5S,6s)-6-((4-amino-5-(2-methoxy-4-((6-methylpyridin-2-yl)oxy)phenyl)-7-methyl-7H-pyrrolo[2,3-d]pyrimidin-6-yl)ethynyl)-3-azabicyclo[3.1.0]hexan-3-yl)-4-(3-fluoropyrrolidin-1-yl)but-2-en-1-one]		10 to 1000 nM	
10 to 1000 nM	CC(=O)N1CCC(C#Cc2c(-c3ccc(Oc4ccccc4)cc3)c3c(N)ncnc3n2C(C)C)CC1 [II-139, 1-(4-((4-amino-7-isopropyl-5-(4-phenoxyphenyl)-7H-pyrrolo[2,3-d]pyrimidin-6-yl)ethynyl)piperidin-1-yl)ethanone]		10 to 1000 nM	
≤ 10 nM	CC(C)N1CCC(C#Cc2c(-c3ccc(Oc4ccccc4)cc3)c3c(N)ncnc3n2C(C)C)CC1 [II-142, 7-isopropyl-6-((1-isopropylpiperidin-4-yl)ethynyl)-5-(4-phenoxyphenyl)-7H-pyrrolo[2,3-d]pyrimidin-4-amine]		10 to 1000 nM	
10 to 1000 nM	Cn1c(C#C[C@@H]2[C@H]3CN(C(=O)/C=C/CN4CCC(F)C4)C[C@@H]23)c(-c2ccc(Oc3ccccc3)cc2)c2c(N)ncnc21 (stereo partly drawn) [II-225, (E)-1-((1R,5S,6s)-6-((4-amino-7-methyl-5-(4-phenoxyphenyl)-7H-pyrrolo[2,3-d]pyrimidin-6-yl)ethynyl)-3-azabicyclo[3.1.0]hexan-3-yl)-4-(3-fluoropyrrolidin-1-yl)but-2-en-1-one]		10 to 1000 nM	
1000 to 10000 nM	C=CC(=O)N1C[C@@H]2[C@@H](C#Cc3c(Br)c4c(N)ncnc4n3C(C)C)[C@@H]2C1 [III-5]		1000 to 10000 nM	
10 to 1000 nM	C=CC(=O)N1CCC(N2CC(C#Cc3c(-c4ccc(Oc5ccccn5)cc4OC)c4c(N)ncnc4n3C)C2)C[C@H]1CO (stereo partly drawn) [II-245, 1-((2S)-4-(3-((4-amino-5-(2-methoxy-4-(pyridin-2-yloxy)phenyl)-7-methyl-7H-pyrrolo[2,3-d]pyrimidin-6-yl)ethynyl)azetidin-1-yl)-2-(hydroxymethyl)piperidin-1-yl)prop-2-en-1-one]		10 to 1000 nM	
